Assay results taken from ChEMBL document CHEMBL1142200, “Efficacy of delayed treatment with ST-246 given orally against systemic orthopoxvirus infections in mice” (Antimicrob Agents Chemother, 2007).
Calls of active or inactive are those of the source. The rule behind the calls is not given here.

Tests used:
[1] = system: Mus musculus; assay: Effect on mortality of A/NCr mouse inoculated with ectromelia virus at 100 mg/kg after 72 hrs of viral infection, ip once daily for 10 days relative control; assay type: functional; conditions: route intraperitoneal
[2] = Selectivity index, ratio of CC50 for HFF cells to EC50 for Vaccinia virus WR infected HFF cells; assay type: functional
[3] = system: Mus musculus; assay: Effect on mortality of A/NCr mouse inoculated with ectromelia virus at 100 mg/kg after 0 hrs of viral infection, ip once daily for 10 days relative control; assay type: functional; conditions: route intraperitoneal
[4] = system: Mus musculus; assay: Effect on mortality of A/NCr mouse inoculated with 410 PFU ectromelia virus at 100 mg/kg after 4 hrs of viral infection, ip once daily for 14 days; assay type: functional; conditions: route intraperitoneal
[5] = system: Mus musculus; assay: Effect on mortality of BALB/c mouse inoculated with Cowpox virus BR at 50 mg/kg after 24 hrs of viral infection, po for 9 days; assay type: functional, organism-based; design: dose 50 mg/kg
[6] = system: Vaccinia virus; assay: Reduction of Vaccinia virus WR replication in BALB/c mouse spleen at 15 mg/kg after 24 hrs of viral infection, ip for 5 days; assay type: functional, organism-based; design: dose 15 mg/kg; conditions: Orthopoxvirus vaccinia
[7] = system: Cowpox virus; assay: Reduction of Cowpox virus BR replication in BALB/c mouse spleen at 15 mg/kg after 24 hrs of viral infection, ip for 5 days; assay type: functional, organism-based; design: dose 15 mg/kg
[8] = system: Mus musculus; assay: Effect on mortality of A/NCr mouse inoculated with 4100 PFU ectromelia virus at 100 mg/kg after 4 hrs of viral infection, ip once daily for 14 days; assay type: functional; conditions: route intraperitoneal
[9] = system: Cowpox virus; assay: Reduction of Cowpox virus BR replication in BALB/c mouse kidney at 15 mg/kg after 24 hrs of viral infection, ip for 5 days; assay type: functional, organism-based; design: dose 15 mg/kg
[10] = system: Mus musculus; assay: Effect on mortality of A/NCr mouse inoculated with ectromelia virus at 100 mg/kg after 24 hrs of viral infection, ip once daily for 10 days relative control; assay type: functional; conditions: route intraperitoneal
[11] = Selectivity index, ratio of CC50 for HFF cells to EC50 for Cowpox virus Brighton infected HFF cells; assay type: functional
[12] = system: Mus musculus; assay: Effect on mortality of BALB/c mouse inoculated with Cowpox virus at 15 mg/kg after 24 hrs of viral infection, ip once daily for 5 days relative to control; assay type: functional; conditions: route intraperitoneal
[13] = system: Cowpox virus; assay: Reduction of Cowpox virus BR replication in BALB/c mouse liver at 15 mg/kg after 24 hrs of viral infection, ip for 5 days; assay type: functional, organism-based; design: dose 15 mg/kg
[14] = system: Mus musculus; assay: Effect on mortality of A/NCr mouse inoculated with 41 PFU ectromelia virus at 100 mg/kg after 4 hrs of viral infection, ip once daily for 14 days; assay type: functional; conditions: route intraperitoneal
[15] = system: Vaccinia virus; assay: Reduction of Vaccinia virus WR replication in BALB/c mouse kidney at 15 mg/kg after 24 hrs of viral infection, ip for 5 days; assay type: functional, organism-based; design: dose 15 mg/kg; conditions: Orthopoxvirus vaccinia
[16] = Cytotoxicity against HFF cells; assay type: cell-based; conditions: human
[17] = system: Mus musculus; assay: Effect on mortality of BALB/c mouse inoculated with Cowpox virus at 15 mg/kg after 72 hrs of viral infection, ip once daily for 5 days relative to control; assay type: functional; conditions: route intraperitoneal
[18] = system: Mus musculus; assay: Effect on mortality of BALB/c mouse inoculated with Cowpox virus BR at 15 mg/kg after 24 hrs of viral infection, ip for 5 days relative to control; assay type: functional; conditions: route intraperitoneal
[19] = system: Mus musculus; assay: Effect on mortality of BALB/c mouse inoculated with Cowpox virus at 15 mg/kg after 48 hrs of viral infection, ip once daily for 5 days relative to control; assay type: functional; conditions: route intraperitoneal
[20] = system: Mus musculus; assay: Effect on mortality of A/NCr mouse inoculated with 4.1 PFU ectromelia virus at 100 mg/kg after 4 hrs of viral infection, ip once daily for 14 days; assay type: functional; conditions: route intraperitoneal
[21] = system: Mus musculus; assay: Effect on mortality of A/NCr mouse inoculated with ectromelia virus at 100 mg/kg after 48 hrs of viral infection, ip once daily for 10 days relative control; assay type: functional; conditions: route intraperitoneal
[22] = system: Mus musculus; assay: Effect on mortality of BALB/c mouse inoculated with Cowpox virus at 15 mg/kg after 4 hrs of viral infection, ip once daily for 5 days relative to control; assay type: functional; conditions: route intraperitoneal
[23] = system: Mus musculus; assay: Effect on mortality of BALB/c mouse inoculated with Vaccinia virus WR at 15 mg/kg after 24 hrs of viral infection, ip for 5 days relative to control; assay type: functional; conditions: route intraperitoneal
[24] = system: Vaccinia virus; assay: Reduction of Vaccinia virus WR replication in BALB/c mouse liver at 15 mg/kg after 24 hrs of viral infection, ip for 5 days; assay type: functional, organism-based; design: dose 15 mg/kg; conditions: Orthopoxvirus vaccinia
[25] = Selectivity index, ratio of CC50 for HFF cells to EC50 for Vaccinia virus Copenhagen infected HFF cells; assay type: functional

Nc1ccn(C[C@@H](CO)OCP(=O)(O)O)c(=O)n1.O.O [CIDOFOVIR]
Activity [1]: 0%
Ratio CC50/EC50 [2]: >9.6
Activity [3]: 0%
Activity [4]: 0%
Activity [5]: Active
Activity [6]: Active
Activity [7]: Active
Activity [8]: 0%
Activity [9]: Active
Activity [10]: 0%
Ratio CC50/EC50 [11]: >7.7
Activity [12]: 0%
Activity [13]: Active
Activity [14]: 40%
Activity [15]: Active
CC50 [16]: > 317 µM
Activity [17]: 0%
Activity [18]: 0%
Activity [19]: 0%
Activity [20]: 0%
Activity [21]: 0%
Activity [22]: 0%
Activity [23]: 7%
Activity [24]: Active
Ratio CC50/EC50 [25]: >10.9
